Molecules are shown by their SMILES.

The target in one data set is Human GLP-1R (Homo sapiens, UniProt P43220). Nature of the data set: cAMP level determination in human GLP-1R stably transfected HEK293T cells (HTRF cAMP kit). Format: cell-based. The conditions noted are these: 37°C 30 min. In a few lines: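 Stably transfected HEK293T cells (1 Million/mL) stimulated 30 min at 37°C with compound (top final 2000 nM, 1:3, 11 points, 0.2% DMSO) plus 0.5 mM IBMX. HTRF cAMP read after 2 hr RT; stimulation % normalised to 100 nM GLP-1 and DMSO wells, cAMP from standard curve, EC50 by four-parameter fit.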

A short description of data set [1]: Pharmacokinetic analysis of compounds in mouse plasma after oral gavage or intravenous injection. Format: in vivo, Male C57BL/6J mice. The conditions noted are these: for AUC(0-t) at 24 h / Cmax / Tmax / half-life / clearance: mouse plasma; for AUC(0-t) at 24 h / Cmax / Tmax: dose 5 mg/kg single oral gavage; for half-life: table dose 5 mg/kg (oral gavage); for clearance: table dose 5 mg/kg, IV arm was 1 mg/kg; for F: mouse, PO 5 mg/kg versus IV 1 mg/kg. As for the experimental part:
Male C57BL/6J mice, approximately 30 g, 6-9 weeks old, gavage oral administration and intravenous injection: 3 mice per compound, animals from Shanghai Medicilon Inc.
The pharmacokinetic characteristics of the compounds were tested in mice after oral gavage (PO) or intravenous injection (IV) using a standard protocol. The test compounds were prepared as clear solutions with the vehicle: 10% (v/v) DMSO + 10% (v/v) Solutol + 80% (v/v) Saline. Three mice were administered a single oral gavage dose of 5 mg/kg, and blood samples were collected at 0.25, 0.5, 1, 2, 4, 6, 8, and 24 hours post-dose via submandibular vein or other appropriate methods. Each sample collected was approximately 0.03 mL, anticoagulated with sodium heparin, and placed on ice after collection. Additionally, three mice were administered a single intravenous injection of 1 mg/kg of the test compound, and blood samples were collected at 0.083, 0.25, 0.5, 1, 2, 4, 8, and 24 hours post-dose via submandibular vein or other appropriate methods. Each sample collected was approximately 0.03 mL, anticoagulated with sodium heparin, and placed on ice after collection. Plasma was separated by centrifugation within 1 hour (centrifugation conditions: 6800g, 6 minutes, 2-8°C), and the concentration of the compounds of the present invention was analyzed by LC-MS/MS method.
Prior to analysis, all samples were stored at -80°C, and pharmacokinetic parameters were calculated using Phoenix WinNonlin. Table 2: Pharmacokinetic Parameters

Chain of Human GLP-1R (P43220 24-463): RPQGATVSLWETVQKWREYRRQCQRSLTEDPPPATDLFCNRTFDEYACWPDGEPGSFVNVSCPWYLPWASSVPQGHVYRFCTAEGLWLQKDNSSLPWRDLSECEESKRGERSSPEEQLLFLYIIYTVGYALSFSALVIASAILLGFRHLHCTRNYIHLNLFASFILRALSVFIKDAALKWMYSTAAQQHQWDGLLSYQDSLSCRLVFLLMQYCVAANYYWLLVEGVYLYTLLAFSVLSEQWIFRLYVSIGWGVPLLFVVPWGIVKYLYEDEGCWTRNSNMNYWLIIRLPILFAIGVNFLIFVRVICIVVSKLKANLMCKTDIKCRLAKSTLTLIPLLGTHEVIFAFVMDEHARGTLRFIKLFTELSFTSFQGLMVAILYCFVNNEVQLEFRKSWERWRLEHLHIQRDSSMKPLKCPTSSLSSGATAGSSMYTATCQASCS

In turn, `Cc1cc(-n2nc3c(c2-n2ccn(-c4ccc(C(=O)N(C)C5CC5)c(F)c4F)c2=O)[C@H](C)N(C(=O)c2cc4cc([C@H]5CCOC(C)(C)C5)ccc4n2[C@@]2(c4nc(=O)o[nH]4)C[C@@H]2C)CC3)cc(C)c1F` [Compound 5] registered an EC50 at Human GLP-1R of 7.69 nM. Also, in data set [1], the exposure AUC(0-t) at 24 h came to 36700 ng·h/mL, the Cmax was found to be 3880 ng/mL, the Tmax stood at 1.33 h and the half-life is 3.11 h. In data set [1], this molecule registered a clearance of 2.38 mL/min/kg and an F of 105.86%.

Consider `Cc1cc(-n2nc3c(c2-n2ccn(-c4ccc(C(=O)N(C)C5CC5)c(Cl)c4F)c2=O)[C@H](C)N(C(=O)c2cc4cc([C@H]5CCOC(C)(C)C5)ccc4n2[C@@]2(c4nc(=O)o[nH]4)C[C@@H]2C)CC3)cc(C)c1F` [Compound 7], for which the concentration for a half-maximal effect (EC50) on Human GLP-1R worked out at 6.12 nM. In data set [1], the AUC(0-t) at 24 h is 34700 ng·h/mL, the peak level (Cmax) was 3120 ng/mL, the Tmax is 1.33 h and the half-life was 3.41 h. In data set [1], the clearance came out at 1.94 mL/min/kg and the F is 81.76%.

In the case of `Cc1cc(-n2nc3c(c2-n2ccn(-c4ccc(C(=O)N(C)C5CC5)c(Cl)c4)c2=O)[C@H](C)N(C(=O)c2cc4cc([C@H]5CCOC(C)(C)C5)ccc4n2[C@@]2(c4nc(=O)o[nH]4)C[C@@H]2C)CC3)cc(C)c1F` [Compound 11], a half-maximal effect on Human GLP-1R (EC50) was put at 5.03 nM. In data set [1], the AUC(0-t) at 24 h was found to be 35200 ng·h/mL, the Cmax was 3170 ng/mL, the time of peak concentration (Tmax) was 3 h and the half-life is 4.27 h. In addition, in data set [1], the clearance worked out at 2.02 mL/min/kg and the F was 87.27%.

Consider `Cc1cc(-n2nc3c(c2-n2ccn(-c4ccc(C(=O)N(C)C5CC5)c(OCC5CC5)c4)c2=O)[C@H](C)N(C(=O)c2cc4cc(C5CCOC(C)(C)C5)ccc4n2[C@@]2(c4nc(=O)o[nH]4)C[C@@H]2C)CC3)cc(C)c1F` (stereo partly drawn) [Compound 43], for which the EC50 on Human GLP-1R turned out to be 13.2 nM.

As to `Cc1cc(-n2nc3c(c2-n2ccn(-c4ccc(OC(F)(F)F)c(C#N)c4)c2=O)[C@H](C)N(C(=O)c2cc4cc(C5CCOC(C)(C)C5)ccc4n2[C@@]2(c4nc(=O)o[nH]4)C[C@@H]2C)CC3)cc(C)c1F` (stereo partly drawn) [Compound 94], the EC50 at Human GLP-1R was found to be 21.6 nM. This EC50 lies about 1.6-fold higher than the previous one.

Molecule `Cc1cc(-n2ccn(-c3c4c(nn3-c3cc(C)c(F)c(C)c3)CCN(C(=O)c3cc5cc([C@H]6CCOC(C)(C)C6)ccc5n3[C@@]3(c5nc(=O)o[nH]5)C[C@@H]3C)[C@H]4C)c2=O)ccc1C(=O)N(C)C1CC1` [Compound 50] showed a half-maximal effective concentration (EC50) on Human GLP-1R of 11.6 nM.

The values are drawn from EP4737454A1, “GLP-1 RECEPTOR AGONIST, AND PREPARATION METHOD THEREFOR AND USE THEREOF” (Wayne Biotechnology Co., Ltd., priority 2023, dated 2025).
